Where “and” joins values, the source holds several entries; their conditions need not be identical. Equal values may be shown once.
Experiment: molar heat capacity at constant pressure
Details: 101.33 kPa, Crystal 1, Vacuum adiabatic calorimetry

[Al+3].[Al+3].[Co+2].[O-2].[O-2].[O-2].[O-2] [aluminium cobalt oxide]
Details | molar heat capacity at constant pressure
146.83 K | 57.16 J/K/mol
147.05 K | 57.28 J/K/mol
149.96 K | 58.88 J/K/mol
150 K | 58.9 J/K/mol
150.67 K | 59.3 J/K/mol
152.88 K | 60.51 J/K/mol
154.53 K | 61.45 J/K/mol
155.79 K | 62.12 J/K/mol
158.38 K | 63.57 J/K/mol
158.7 K | 63.68 J/K/mol
160 K | 64.37 J/K/mol
161.62 K | 65.3 J/K/mol
162.25 K | 65.67 J/K/mol
164.55 K | 66.89 J/K/mol
166.11 K | 67.74 J/K/mol
167.47 K | 68.46 J/K/mol
169.98 K | 69.8 J/K/mol
170 K | 69.81 J/K/mol
170.39 K | 70.02 J/K/mol
173.28 K | 71.53 J/K/mol
173.86 K | 71.81 J/K/mol
176.14 K | 73.02 J/K/mol
177.74 K | 73.82 J/K/mol
178.97 K | 74.47 J/K/mol
180 K | 74.99 J/K/mol
181.6 K | 75.79 J/K/mol
181.77 K | 75.91 J/K/mol
184.55 K | 77.27 J/K/mol
185.41 K | 77.67 J/K/mol
187.3 K | 78.65 J/K/mol
189.19 K | 79.56 J/K/mol
190 K | 79.97 J/K/mol
190.03 K | 79.99 J/K/mol
192.74 K | 81.28 J/K/mol
192.91 K | 81.34 J/K/mol
195.43 K | 82.61 J/K/mol
196.6 K | 83.11 J/K/mol
198.09 K | 83.83 J/K/mol
200 K | 84.73 J/K/mol
200.24 K | 84.85 J/K/mol
200.74 K | 85.08 J/K/mol
203.36 K | 86.29 J/K/mol
203.85 K | 86.5 J/K/mol
205.97 K | 87.49 J/K/mol
207.42 K | 88.12 J/K/mol
208.56 K | 88.63 J/K/mol
210 K | 89.28 J/K/mol
210.96 K | 89.71 J/K/mol
211.13 K | 89.82 J/K/mol
213.68 K | 90.9 J/K/mol
214.47 K | 91.27 J/K/mol
216.22 K | 92.07 J/K/mol
217.95 K | 92.81 J/K/mol
218.74 K | 93.14 J/K/mol
220 K | 93.68 J/K/mol
221.25 K | 94.2 J/K/mol
221.4 K | 94.18 J/K/mol
223.74 K | 95.23 J/K/mol
224.82 K | 95.65 J/K/mol
226.22 K | 96.27 J/K/mol
228.21 K | 97.04 J/K/mol
228.69 K | 97.25 J/K/mol
230 K | 97.8 J/K/mol
231.14 K | 98.26 J/K/mol
231.58 K | 98.37 J/K/mol
233.58 K | 99.23 J/K/mol
234.92 K | 99.71 J/K/mol
236.01 K | 100.16 J/K/mol
238.24 K | 101.02 J/K/mol
238.42 K | 101.09 J/K/mol
240 K | 101.73 J/K/mol
240.83 K | 102.05 J/K/mol
241.54 K | 102.25 J/K/mol
243.22 K | 102.92 J/K/mol
244.81 K | 103.49 J/K/mol
245.59 K | 103.81 J/K/mol
247.96 K | 104.73 J/K/mol
248.06 K | 104.72 J/K/mol
250 K | 105.45 J/K/mol
250.32 K | 105.57 J/K/mol
251.29 K | 105.92 J/K/mol
252.67 K | 106.55 J/K/mol
254.51 K | 106.81 J/K/mol
255.02 K | 106.86 J/K/mol
257.35 K | 107.86 J/K/mol
257.71 K | 108 J/K/mol
259.68 K | 108.69 J/K/mol
260 K | 108.81 J/K/mol
260.89 K | 109.14 J/K/mol
261.99 K | 109.47 J/K/mol
264.06 K | 110.17 J/K/mol
264.3 K | 110.3 J/K/mol
266.6 K | 111.11 J/K/mol
267.21 K | 111.27 J/K/mol
268.89 K | 111.88 J/K/mol
270 K | 112.21 J/K/mol
270.34 K | 112.32 J/K/mol
271.18 K | 112.63 J/K/mol
273.45 K | 113.32 J/K/mol and 113.36 J/K/mol
275.72 K | 114.12 J/K/mol
276.55 K | 114.32 J/K/mol
277.98 K | 114.86 J/K/mol
279.64 K | 115.3 J/K/mol
280 K | 115.49 J/K/mol
280.23 K | 115.61 J/K/mol
282.47 K | 116.23 J/K/mol
282.71 K | 116.25 J/K/mol
284.71 K | 117.01 J/K/mol
285.76 K | 117.27 J/K/mol
286.94 K | 117.64 J/K/mol
288.8 K | 118.11 J/K/mol
289.16 K | 118.27 J/K/mol
290 K | 118.56 J/K/mol
291.38 K | 118.88 J/K/mol
291.83 K | 118.87 J/K/mol
293.59 K | 119.39 J/K/mol
294.84 K | 119.71 J/K/mol
295.8 K | 120.14 J/K/mol
297.85 K | 120.6 J/K/mol
298 K | 120.75 J/K/mol
298.15 K | 120.8 J/K/mol
300 K | 121.29 J/K/mol
300.19 K | 121.32 J/K/mol
300.84 K | 121.4 J/K/mol
302.38 K | 121.76 J/K/mol
304.56 K | 122.44 J/K/mol
306.74 K | 123.1 J/K/mol
308.91 K | 123.82 J/K/mol
310 K | 124.03 J/K/mol
311.08 K | 124.21 J/K/mol
314.58 K | 125.39 J/K/mol
316.31 K | 125.57 J/K/mol
318.27 K | 126.1 J/K/mol
320 K | 126.56 J/K/mol
320.27 K | 126.63 J/K/mol
322.26 K | 127.06 J/K/mol
324.24 K | 127.71 J/K/mol
326.23 K | 128.15 J/K/mol
328.22 K | 128.71 J/K/mol
330 K | 129.18 J/K/mol
330.21 K | 129.23 J/K/mol
332.21 K | 129.58 J/K/mol
334.2 K | 130.14 J/K/mol
336.19 K | 130.48 J/K/mol
338.18 K | 131.04 J/K/mol
340 K | 131.5 J/K/mol
340.18 K | 131.54 J/K/mol
342.17 K | 132 J/K/mol
344.16 K | 132.51 J/K/mol
346.15 K | 132.95 J/K/mol
348.15 K | 133.41 J/K/mol
350 K | 133.79 J/K/mol
350.14 K | 133.82 J/K/mol
352.14 K | 134.31 J/K/mol
354.14 K | 134.84 J/K/mol
356.13 K | 135.27 J/K/mol
358.13 K | 135.71 J/K/mol
360 K | 136.1 J/K/mol
360.13 K | 136.12 J/K/mol
362.13 K | 136.47 J/K/mol
364.13 K | 136.92 J/K/mol
366.13 K | 137.31 J/K/mol
368.13 K | 137.72 J/K/mol
370 K | 138.26 J/K/mol
370.14 K | 138.29 J/K/mol
372.14 K | 138.51 J/K/mol
374.14 K | 138.93 J/K/mol
376.14 K | 139.33 J/K/mol
378.15 K | 139.67 J/K/mol
380 K | 140.09 J/K/mol
380.15 K | 140.12 J/K/mol
382.16 K | 140.49 J/K/mol
384.17 K | 140.86 J/K/mol
386.17 K | 141.18 J/K/mol
388.18 K | 141.53 J/K/mol
390 K | 141.96 J/K/mol
390.19 K | 142 J/K/mol
392.2 K | 142.2 J/K/mol
394.22 K | 142.53 J/K/mol
396.23 K | 142.78 J/K/mol
398.24 K | 143.19 J/K/mol
400.25 K | 143.52 J/K/mol

From the NIST ThermoML archive (doi:10.1016/j.jct.2009.01.014)
